Read-outs that look alike come from different tables or passages of the source.

In one test the test system is MCF-7 cells. Kind of test: Antiproliferative assay, MCF-7 cells. Particulars: read-out: MCF-7 50% cell growth inhibition. Format: cell-based. The protocol:
Two widely used human breast cancer cell lines were evaluated for sensitivity to the cytotoxic effects of the naphthoquinone spiroketals. MCF-7 cells were originally derived from an adenocarcinoma of the breast and retain several characteristics of differentiated mamnmary epithelium including the ability to process estradiol via cytoplasmic estrogen receptors. MCF-7 cells express the tumor suppressor gene product p53, which is required for the programmed cell death or apoptosis caused by many agents. (Foster, B. A.; Coffey, H. A.; Morin, M. J.; Rastinejad, F. Science 1999, 286, 2507).
The proliferation of MCF-7, MDA-MB-231 and SV40 transformed mouse embryonic fibroblasts was measured by a previously described colorimetric assay (Wipf P, Jung J-K, Rodriguez S, Lazo JS Synthesis and biological evaluation of Deoxypreussomerin A and Palmarumycin CP 1 and related naphthoquinone spiroketals. Tetrahedron 57:283-296, 2001 and Vogt A, Rice RL, Settineri CE, Yokokawa F, Yokokawa S, Wipf P and Lazo JS (1998) Disruption of insulin-like growth factor-I signaling and down-regulation of Cdc2 by SC-ααδ9, a novel small molecule antisignaling agent identified in a targeted array library. J Pharmacol Exptl Therap 287:806-813.). Briefly, the inventors seeded 4,000-6,000 cells per well in microtiter plates. Cells were allowed to attach overnight and treated with vehicle or compounds for 72 h, after which the medium was replaced with serum free medium containing 0.1% 3-[4,5-dimethylthiazol-2-yl]-2,5-diphenyl tetrazolium bromide. Plates were incubated for 3 hours in the dark and total cell number was determined by spectrophotometrically at 540 nm as previously described (Vogt A, Rice RL, Settineri CE, Yokokawa F, Yokokawa S, Wipf P and Lazo JS (1998) Disruption of insulin-like growth factor-1 signaling and down-regulation of Cdc2 by SC-ααδ9, a novel small molecule antisignaling agent identified in a targeted array library. J Pharmacol Exptl Therap 287:806-813.). […] Cells were maintained in RPMI 1640 medium containing 10% fetal bovine serum and the paclitaxel-resistant cells also contained 17 nM paclitaxel and 10 μM verapamil. Cells were plated (2,000/well) in 96-well plates and allowed to attach and grow for 72 hours (paclitaxel and verapamil were removed from resistant cell medium two weeks prior to this plating). They were then treated with 0.5% DMSO vehicle control or 0.08-10 μM compound. The number of cells was determined spectrophotometrically at 490 nm minus absorbance at 630 nm after exposure to 3-(4,5-dimethylthiazol-2-yl)-5-(3-carboxymethoxyphenyl)-2-(4-sulfophenyl)-2H-tetrazolium and N-methyldibenzopyurazine methyl sulfate. […]

The target in a further test is T1, TrxR (Homo sapiens, UniProt Q16881).
T1 construct: Thioredoxin reductase was purified from human placenta as previously described; from tissue; host or cells: human placenta
T1 sequence (Q16881 1-499 isoform Q16881-5): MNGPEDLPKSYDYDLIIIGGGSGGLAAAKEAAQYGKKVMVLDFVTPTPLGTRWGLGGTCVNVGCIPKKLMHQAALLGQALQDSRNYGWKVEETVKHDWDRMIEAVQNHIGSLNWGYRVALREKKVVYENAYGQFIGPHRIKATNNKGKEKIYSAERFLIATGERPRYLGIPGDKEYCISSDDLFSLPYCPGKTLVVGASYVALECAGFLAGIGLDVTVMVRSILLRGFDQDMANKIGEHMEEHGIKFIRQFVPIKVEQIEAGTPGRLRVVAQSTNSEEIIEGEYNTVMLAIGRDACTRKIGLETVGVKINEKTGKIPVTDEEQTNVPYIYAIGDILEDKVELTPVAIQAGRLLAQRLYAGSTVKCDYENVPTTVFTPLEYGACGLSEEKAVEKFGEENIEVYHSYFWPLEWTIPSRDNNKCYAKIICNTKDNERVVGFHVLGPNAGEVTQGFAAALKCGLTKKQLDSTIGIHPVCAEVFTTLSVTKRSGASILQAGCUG
In words: Thioredoxin reductase (TrxR) DTNB reduction assay. Format: biochemical. Particulars: calculated from 5 concentrations (0.1 to 50 μM). As to the method: Thioredoxin reductase was purified from human placenta as previously described (Oblong, J.E.; Gasdaska, P.Y.; Sherrill, K.; Powis,G. Biochemistry 1993, 32, 7271) and recombinant human Trx-1 was prepared as previously described (Gasdaska, P.Y.; Oblong, J.E.; Cotgreave, I.A.; Powis,G. Biochem.Biophys.Acta 1994 ,1218 ,292). TrxR and Trx-1/TrxR activities were measured spectrophotometrically using previously published microtiter plate colorimetric assays, based on the increase in absorbance at 405 nm which occurs as dithionitrobenzoic acid (DTNB) is reduced by the enzyme-mediated transfer of reducing equivalents from NADPH (Gasdaska et al., Biochem.Biophys.Acta 1994 ,1218,292). Trx-1/TrxR-dependent insulin reducing activity was measured in an incubation with a final volume of 60 μL containing 100 mM HEPES buffer, pH 7.2,5 mM EDTA (HE buffer),1 mM NADPH, […],0.8 μM Trx-1 and 2.5 mg/mL bovine insulin. Incubations were for 30 min at 37 ° C. in flat-bottom 96-well microtiter plates. The reaction was stopped by the addition of 100 μL of 6 M guanidine-HC1, 50 mM Tris, pH 8.0, and 10 mM DTNB, and the absorbance measured to 405 nm. TrxR activity was measured in a final incubation volume of 60 μL containing HE buffer, 10 mM DTNB, 1.0 μM TrxR and 1 mM NADPH. Compounds were diluted in HE buffer and added to the wells as 20 μL aliquots, and TrxR was then added,also as 20 μL aliquots in HE buffer. To start the reaction NADPH and DTNB were added as a 20 μL aliquot in HE buffer and the plate was moved to the plate reader which had been preheated to 37 ° C. The optical density at 405 nm was measured every 10 s and initial reaction rates were measured.

Turning to `O=C1C=CC2(Oc3cccc4cccc(c34)O2)c2cccc(OCCc3ccccc3)c21` [SR-6, 8-(2-phenyl-ethoxy)-1-oxo-1,4-dihydronaphthalene-4-spiro-2′-naphto [1″,8″-de][1′,3′] dioxin], the IC50 with MCF-7 cells (Homo sapiens, MCF7, 72 h) came out at 3.9 µM.

Turning to `O=C1C=CC2(Oc3cccc4cccc(c34)O2)c2cccc(OCc3ccoc3)c21` [SR-10, 8-(furan-3-ylmethoxy)-1-oxo-1,4-dihydronaphthalene-4-spiro-2′-naphto [1′,8′-de][1′,3′] dioxin], the IC50 in the test on MCF-7 cells (Homo sapiens, MCF7, 72 h) is 2 µM; on TrxR, > 50 µM.

In the case of `COc1cccc2c1C(=O)C=CC21OCCCO1` [TH-223], the IC50 in the test on MCF-7 cells (72 hours) was 4.4 µM; on TrxR, > 50 µM.

On to `CC(C)=CCC/C(C)=C/COc1cccc2c1C(=O)C=CC21Oc2cccc3cccc(c23)O1` [SR-9, (E,E)-8-(3,7-diemthyl-octa-2,6-dienyloxy)-1-oxo-1,4-dihydronaphthalene-4-spiro-2′-naphtol [1″,8″-de][1′,3′] dioxin], for which, in the test on MCF-7 cells (Homo sapiens, MCF7, 72 h), the IC50 came out at 4.6 µM.

On to `COc1cccc(COc2cccc3c2C(=O)C=CC32Oc3cccc4cccc(c34)O2)c1` [SR-5, 8-(3-methoxy-benzyloxy)-1-oxo-1,4-dihydronaphthalene-4-spiro-2′-naphto [1″,8″-de][1′,3′] dioxin], for which the IC50 in the test on MCF-7 cells (Homo sapiens, MCF7, 72 h) is 2.3 µM.

`CCCCCCOc1cccc2c1C(=O)C=CC21Oc2cccc3cccc(c23)O1` [SR-3, 8-hexyloxy-1-oxo-1,4-dihydronaphthalene-4-spiro-2′-naphto [1″,8″-de] [1′,3′] dioxin]: in the test with MCF-7 cells (Homo sapiens, MCF7, 72 h), the IC50 worked out at 13.4 µM.

Consider `COc1ccc(COc2cccc3c2C(=O)C=CC32Oc3cccc4cccc(c34)O2)cc1` [TH-39, 8-(4-methoxy-benzyloxy)-1-oxo-1,4-dihydronaphthalene4-spiro-2-naphto [1,8-de][1, 3]dioxin], for which the IC50 was 0.7 µM in the test on MCF-7 cells (Homo sapiens, MCF7, 72 h) and > 50 µM on TrxR.

As to `C/C=C/COc1cccc2c1C(=O)C=CC21Oc2cccc3cccc(c23)O1` [SR-2, (E)-8-(but-2-enyloxy)-1-oxo-1,4-dihydronaphthalene-4-spiro-2′-naphto [1″,8″-de][1′,3′]dioxin], the IC50 with MCF-7 cells (Homo sapiens, MCF7, 72 h) amounted to 1.3 µM.

Turning to `O=C1C=CC2(Oc3cccc4cccc(c34)O2)c2cccc(O)c21` [palmarumycin CP1, 8-hydroxy-1-oxo-1,4-dihydronaphthalene-4-spiro-2′-naphtho[1″,8″-de] [1′,3′] dioxin, reference compound], the IC50 with MCF-7 cells (72 hours) was 1 µM; in the test with MCF-7 cells (Homo sapiens, MCF7, 72 h), 1 to 2 µM; on TrxR it was 12 µM.

On to `C=CCOc1cccc2c1C(=O)C=CC21Oc2cccc3cccc(c23)O1` [SR-14, 8-allyloxy-1-oxo-1,4-dihydronaphthalene-4-spiro-2′-naphto [1″,8″-de][1′,3′] dioxin], for which the IC50 with MCF-7 cells (Homo sapiens, MCF7, 72 h) was 2 µM; on TrxR, > 50 µM.

On to `O=C1C=CC2(Oc3cccc4cccc(c34)O2)c2cccc(OCc3cccnc3)c21` [SR-12, 8-(pyridin-3-ylmethoxy)-1-oxo-1,4-dihydronaphthalene-4-spiro-2′-naphto [1″,8″-de][1′,3′] dioxin], for which the IC50 was 1.5 µM in the test with MCF-7 cells (Homo sapiens, MCF7, 72 h) and > 50 µM on TrxR.

For the molecule `O=C1C=CC2(OCCO2)c2cccc(O)c21` [TH-169], the IC50 was 4.2 µM in the test with MCF-7 cells (Homo sapiens, MCF7, 72 h) and 8.8 µM on TrxR.

As for `O=C1C=CC2(Oc3cccc4cccc(c34)O2)c2cccc(OCc3ccncc3)c21` [SR-13, 8-(pyridin-4-ylmethoxy)-1-oxo-1,4-dihydronaphthalene-4-spiro-2′-naphtol [1″,8″-de][1′,3′] dioxin], the IC50 is 8 µM with MCF-7 cells (Homo sapiens, MCF7, 72 h) and > 50 µM at TrxR.

On to `O=C1C=CC2(Oc3cccc4cccc(c34)O2)c2cccc(OC/C=C/c3ccccc3)c21` [SR-1, (E)-8-(3-phenyl-allyloxy)-1-oxo-1,4-dihydronaphthalene-4-spiro-2′-naphto[1″, 8″-de] [1′,3′] dioxin], for which, in the test on MCF-7 cells (Homo sapiens, MCF7, 72 h), the IC50 stood at 7.9 µM.

On to `O=C1C=CC2(Oc3cccc4cccc(c34)O2)c2cccc(OCc3ccccn3)c21` [SR-11, 8-(pyridin-2-ylmethoxy)-1-oxo-1,4-dihydronaphthalene-4-spiro-2′-naphto [1″,8″-de][1′,3′] dioxin], for which the IC50 in the test with MCF-7 cells (Homo sapiens, MCF7, 72 h) was 2 µM; on TrxR, > 50 µM.

In the case of `O=C1C=CC2(Oc3cccc4cccc(c34)O2)c2cccc(OCc3ccco3)c21` [SR-7, 8-(furan-2-ylmethoxy)-1-oxo-1,4-dihydronaphthalene-4-spiro-2′-naphto [1″,8″-de][1′,3′] dioxin], the IC50 was 1.1 µM in the test on MCF-7 cells (72 hours) and 1 to 2 µM in the test with MCF-7 cells (Homo sapiens, MCF7, 72 h).

The values above are taken from patent publication US6673937B2, “Syntheses and methods of use of new antimitotic agents” (The University of Pittsburgh, priority 2000, dated 2004).
